For one assay, the system named is T. gondii tachyzoites. Description: [3H]-uracil uptake assay of parasite growth inhibition in infected HFF cell monolayers. The following applies: infected HFF cell monolayers, 36-48 hours; read-out: IC50 against T. gondii in the uracil uptake assay. It counts as cell-based, Toxoplasma gondii. From the text:
Host cells and parasite cultures—RH strain or RH ΔHXGPRT strain tachyzoites of T. gondii were maintained by serial passage in confluent monolayers of human foreskin fibroblasts (“HFF”) as described (Roos, D. S. et al., 1994, Methods Cell Biol. 45:27-63). A modified [^3H]-uracil uptake assay (Pfefferkorn, E. R. and Pfefferkorn, L. C., 1977, J. Protozool. 24:449-453) adapted for use in 96-well scintillation plates (Cytostar-T, Amersham; Piscataway, N.J.) was used to measure parasite growth inhibition. Each well, previously seeded with HFF cells, was inoculated with T. gondii tachyzoites (2×10^4) in 200 μl of growth media containing 2 μCi [5,6]-^3H-uracil (Perkin-Elmer NEN; Boston, Mass.) and serially diluted compound. Following incubation at 37° C. for 36-48 hours, tritium-incorporation into host cell monolayers was directly counted in a microplate scintillation counter (MicroBeta, PerkinElmer-Wallac).

The target of another assay is EtCKIα (Eimeria tenella, UniProt Q6QNL9). Description: Casein kinase assay, partially purified native EtCKIα. It counts as biochemical. The following applies: native enzyme. How it is done:
(§1) Protein kinase assays—Casein kinase activity was assayed essentially as described (Donald, R. G. K. et al., 2002, supra) using 96-well phosphocellulose plates (MAPH-NOB, Millipore; Billerica, Mass.) to capture ^33P-phosphorylated peptide or casein substrates. Kinase reactions were carried out in 40 μl volumes containing 25 mM Hepes, pH 7.4, 10 mM MgCl2, 20 mM β-glycerophosphate, 1 mM DTT, 250 μM substrate, 1 mg/mL BSA, 2 μM ATP, and 0.01 μM [γ-^33P]ATP (Perkin-Elmer, 3000 Ci/mmol). The reactions were initiated by the addition of enzyme and incubated at room temperature for 60 min. Casein (5% solution), partially dephosphorylated α-casein and β-casein were obtained from Sigma.
(§2) A variety of commercially available peptide substrates were evaluated. From Calbiochem (San Diego, Calif.): CKI substrate (RRKDLHDDEEDEAMSITA; SEQ ID NO:13); CKII substrate (RRADDSDDDDD; SEQ ID NO:14); Syntide-2 substrate (PLARTLSVAGLPGKK; SEQ ID NO:15); CaM kinase II substrate (281-291) (MHKNETVECLK; SEQ ID NO:16). From Promega: CKI substrate (DDDEESITRR; SEQ ID NO:17) and kemptide (LRRASLG; SEQ ID NO:18). From New England Biolabs (Beverly, Mass.): CKI phosphopeptide substrate (KRRRALS(p)VASLPGL; SEQ ID NO:19), and CKII substrate (RRREEETEEE; SEQ ID NO:20). PKG assays were performed with kemptide as substrate and 10 μM cGMP. CDPK was assayed with Syntide-2 substrate and in the presence of 100 μM CaCl2.
Partial purification of native EtCKIα—The inability to stably express recombinant EtCKIα in T. gondii provided impetus to purify native enzyme from E. tenella parasites (slide 5). A lysate was prepared from 2×10^10 unsporulated oocysts using previously published procedures (Gurnett, A. M. et al., 2002, supra). The first two steps of the purification scheme used were essentially scaled-up from the method described for the purification of native TgCKIα. The lysate was subjected to preparative HiLoad Q anion-exchange chromatography and fractions eluted with a NaCl gradient (0-1 M NaCl). […]

The next assay has as its target T1, TgCDPK1 (Toxoplasma gondii, UniProt Q9BJF5).
T1 construct: The TgCDPK1 open reading frame was amplified by PCR from a Toxoplasma cDNA library; made in house
Description: CDPK assay with Syntide-2, T. gondii CDPK1. It counts as biochemical. The following applies: 0.2 μM hymenialdisine or 1 μM purvalanol B; CKI phosphopeptide substrate. How it is done:
as §1, §2
Purification of recombinant TgCDPK1 and TgPKG—The TgCDPK1 open reading frame was amplified by PCR from a Toxoplasma cDNA library, using primers based on the published sequence (Kieschnick et al., 2001, supra): sense primer, […] (SEQ ID NO:44); and, antisense primer, […] (SEQ ID NO:45). A C-terminal FLAG epitope tag was appended to the TgCDPK1 open reading frame by an additional round of PCR amplification (KOD polymerase) and the resulting DNA fragment was sub-cloned into a tubulin promoter expression vector (Donald and Liberator, 2002, supra). […]

The structures appear in SMILES notation.

Here are results for 1 compound from patent US7671181B2, “Polynucleotides encoding coccidian parasite casein kinase I, a chemotherapeutic target for antiprotozoal agents” (Merck Sharp & Dohme Corp., priority 2004, dated 2010).

Sequence of EtCKIα (Q6QNL9 whole entry): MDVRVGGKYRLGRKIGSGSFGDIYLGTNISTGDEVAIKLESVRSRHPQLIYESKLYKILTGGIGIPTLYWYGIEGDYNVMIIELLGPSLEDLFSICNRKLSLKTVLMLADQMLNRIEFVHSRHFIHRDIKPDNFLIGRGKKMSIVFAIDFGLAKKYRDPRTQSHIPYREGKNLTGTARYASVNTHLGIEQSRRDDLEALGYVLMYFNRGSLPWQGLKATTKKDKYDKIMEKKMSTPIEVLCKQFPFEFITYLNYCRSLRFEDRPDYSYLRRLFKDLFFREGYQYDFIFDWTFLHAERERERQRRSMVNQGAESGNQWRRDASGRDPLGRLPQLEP
T1 sequence (Q9BJF5 entry or part of it): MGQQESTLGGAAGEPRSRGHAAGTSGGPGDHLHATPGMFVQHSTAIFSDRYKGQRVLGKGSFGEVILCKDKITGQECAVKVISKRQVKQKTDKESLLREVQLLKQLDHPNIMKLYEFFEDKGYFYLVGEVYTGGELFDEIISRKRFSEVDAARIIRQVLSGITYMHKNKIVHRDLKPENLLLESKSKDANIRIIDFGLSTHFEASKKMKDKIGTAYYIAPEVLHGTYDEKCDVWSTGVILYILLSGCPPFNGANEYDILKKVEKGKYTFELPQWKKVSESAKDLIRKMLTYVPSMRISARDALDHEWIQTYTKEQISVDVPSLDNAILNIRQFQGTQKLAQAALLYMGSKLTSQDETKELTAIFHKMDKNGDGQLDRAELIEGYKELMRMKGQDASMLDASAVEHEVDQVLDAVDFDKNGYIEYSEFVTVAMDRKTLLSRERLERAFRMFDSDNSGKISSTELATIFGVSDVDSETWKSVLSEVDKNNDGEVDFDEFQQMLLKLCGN

The IC50 is the concentration at which inhibition is half-maximal. Regarding `CC(C)[C@H](CO)Nc1nc(Nc2ccc(C(=O)O)c(Cl)c2)c2ncn(C(C)C)c2n1` [purvalanol B], in the assay with T. gondii tachyzoites, the IC50 was found to be 260 nM. Also, on EtCKIα, the “activity against / sensitivity of EtCKIα” value is recorded as “good activity”. In addition, the “sensitivity of phosphopeptide kinase activity of fractions 14 and 15 (TgCDPK1)” value at TgCDPK1 is recorded as “partial sensitivity”.
